Laboratory results from article PMC6394990, “Detailed characterization of the solution kinetics and thermodynamics of biotin, biocytin and HABA binding to avidin and streptavidin” (PLoS ONE, 2019).
Values joined by “and” are separate entries in the source; they are usually repeats but may differ in a detail not shown here. Identical values can stand only once. Like-named read-outs stand apart in the source and are kept apart here.

Molecular target: T1, avidin (AV) (Gallus gallus, UniProt P02701)
T1 construct: purchased Calbiochem (La Jolla, CA)
T1 sequence (P02701 25-152): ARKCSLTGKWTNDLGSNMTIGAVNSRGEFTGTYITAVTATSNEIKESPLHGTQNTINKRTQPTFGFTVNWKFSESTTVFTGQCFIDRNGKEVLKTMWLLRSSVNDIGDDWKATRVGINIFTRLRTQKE
Assay: Stopped-flow association kinetics of dye-labeled biotin probes binding to avidin (F(t), rF(t); Arrhenius plots/global fitting)
Set-up: ln(k) / dS+ / dG+ / Eon for BFl / b of the line y = m1x+b1: unit not given here
Conditions: for k(average): k (full value)
Procedure: These reactions were carried out in a buffered solution of 10 mM Tris-HCl, 100 mM KCl, 2.5 mM MgCl2 and 1 mM CaCl2 at pH 8 and only AV-BcO reactions included pH 9 and 10. The concentrations, after mixing, were of 20 nM of dye-labeled B7 probe and 260 nM, 520 nM or 1040 nM of AV; and 200 nM, 300 nM, 400 nM or 800 nM of SAV at temperatures of 10, 15, 20 and 25°C. The deglycosylation of AV (for comparative association reactions) was carried out using the provided standard protocol with endoglycosidase H [47], both with and without incubation of a denaturant solution (2% SDS and 1M 2-mercaptoethanol).
The reactions were collected with the SF instrument, described previously. The fluorescence signal was collected through a 520 nm interference filter (Oriel Corp., Stratford, CT) with a detector time constant and SF dead time of 1 μs and 1 ms, respectively. The excitation light was provided by the Coherent Ar^+ ion laser (described above) at 488 nm with […] of incident power on the reaction cuvette. The laser source was followed by the photo-elastic modulator described above with the axis oriented 45^o with respect to the electric vector of the incident light and with the half-wave modulation (50 kHz) set for 488 nm excitation. The demodulation circuitry following the photomultiplier provided a DC(t) and a rectified AC(t) which were converted to digital data by a high-speed digitizer (PCI-5122) from National Instruments (Austin, TX) with 14-bit resolution and 100 MHz bandwidth, through channels 0 and 1. The data acquisition was controlled by LabVIEW (Vr 8) software at a collection rate of 6120 data points/second and stored in spreadsheets. The AC(t) and DC(t) data were baseline corrected before obtaining the signal ratio (Eq 4) as a function of time (ρt).
The constant AGain is the instrumental amplitude gain and was evaluated by solving ρ(t) using the known steady state anisotropy (rss) of the complexes which is equivalent to the r(t) at t = ∞; and H, obtained from the equivalent grating factor (G) for the filters and photo multiplier tubes in the SF. For the probes used in here G was 0.82 and H = (1-G)/(1+G) = 0.099. Knowing Again and H, the AC(t) and DC(t) signals can be solved for r(t) and F(t) (Eqs 4 and 5) and the normalized fluorescence, F¯(t) , and corrected fluorescence anisotropy, rF¯(t), were obtained when F¯(0) and rF¯(0) were scaled to 1 at t = 0.
The F¯(t) (Eq 6) is equivalent to (I||) + 2 (I⊥) and proportional to quantum yield (QYi), molar absorptivity (εi) and to the formation or disappearance of the emitting species Xi(t); and rF¯(t) including the steady state anisotropies (rss) of each fluorescent species (Eq 7).
The possible reaction models were discriminated by the squared residuals of the observed and calculated association traces of both fluorescence and anisotropy fluorescence signals, F¯(t) and rF¯(t) , respectively.

[1] = AV, average over the dye-labeled B7 probes, used for AV-B7

Q: With `O=C(O)CCCC[C@@H]1SC[C@@H]2NC(=O)N[C@@H]21` [B7, d-biotin] as the compound, how does the “Eaon + (-∆H°)” value (AV-B) read?
A: 36.5 ± 1.3 kcal/mol

Q: And the “∆G°ǂ + (-∆G°)” value (AV-B)?
A: 25.4 ± 1.0 kcal/mol

Q: What about the “∆S°ǂ + (-∆S°)” value (AV-B) of the same compound?
A: 41.9 ± 2.0 cal/mol°K

Q: What about the “ΔE = Ea^Forward-Ea^Backward” value (AV-B7, column 3 minus 4) of the same compound?
A: -23.2 ± 2.2 kcal/mol and -23.2 kcal/mol

Q: What about the “ΔG° ^ǂ, Forward -ΔG° ^ǂ, Backward” value (AV-B7, column 3 minus 4) of the same compound?
A: -20.0 ± 4.0 kcal/mol

Q: And the “ΔS° ^ǂ, Forward -ΔS° ^ǂ, Backward” value (AV-B7, column 3 minus 4)?
A: -11.0 ± 2.5 cal/mol°K

Q: And the “fold slower than 10^9 M^-1s^-1 (diffusion limited)” value (AV, 25°C)?
A: 54-714 X

Q: What about the “ΔG^ǂ, Forward” value [1] of the same compound?
A: 4.7 ± 0.3 kcal/mol and 4.7 kcal/mol

Q: And the “ΔS^ǂ, Forward” value [1]?
A: 32 cal/°K·mol

Q: What about the “ΔS^ǂ, Forward” value (AV, average over the dye-labeled B7 probes, used for AV-B7, listed as B) of the same compound?
A: 33.0 ± 2.0 cal/°K·mol

Q: How did the “kon fold slower than Green's 7 × 10^7 M^-1s^-1” value (25°C and pH 8 vs 25°C and pH 5) turn out when `O=C(CCCC[C@@H]1SC[C@@H]2NC(=O)N[C@@H]21)NCCNC(=O)c1ccc(-c2c3ccc(=O)cc-3oc3cc(O)ccc23)c(C(=O)O)c1` [BFl, Biotin-4-fluorescein] was run?
A: 3.8 X

Q: What about the “fold by which the SPR kon (ref 20) is slower than the kon of the probe” value (AV) of the same compound?
A: ~ 9 X

Q: What about the kon (AV, 25°C, read-out: kon) of the same compound?
A: ~1.9e+07 M⁻¹ s⁻¹

Q: And the “Ea^Forward” value (AV, pH 8)?
A: 14.6 ± 0.6 kcal/mol

Q: What about the “ln(k)” value (AV, pH8, 10 (283.15 K)) of the same compound?
A: 15.4

Q: And the “k(average)” value (AV, pH8, 10 (283.15 K))?
A: 4.86E+06

Q: What about the kon (AV, pH8, 10 (283.15 K), k (scaled)) of the same compound?
A: 4.9e+06 M⁻¹ s⁻¹

Q: What about the “ln(k)” value (AV, pH8, 15 (288.15 K)) of the same compound?
A: 15.8

Q: What about the “k(average)” value (AV, pH8, 15 (288.15 K)) of the same compound?
A: 7.60E+06

Q: What about the kon (AV, pH8, 15 (288.15 K), k (scaled)) of the same compound?
A: 7.6e+06 M⁻¹ s⁻¹

Q: What about the “ln(k)” value (AV, pH8, 20 (293.15 K)) of the same compound?
A: 16.2

Q: What about the “k(average)” value (AV, pH8, 20 (293.15 K)) of the same compound?
A: 1.07E+07

Q: And the kon (AV, pH8, 20 (293.15 K), k (scaled))?
A: 1.07e+07 M⁻¹ s⁻¹

Q: What about the “ln(k)” value (AV, pH8, 25 (298.15 K)) of the same compound?
A: 16.7

Q: And the “k(average)” value (AV, pH8, 25 (298.15 K))?
A: 1.85E+07

Q: What about the kon (AV, pH8, 25 (298.15 K), k (scaled)) of the same compound?
A: 1.85e+07 M⁻¹ s⁻¹

Q: And the “ΔG^ǂ” value (AV, pH 8, forward)?
A: 4.2 ± 0.5 kcal/mol

Q: And the “ΔS^ǂ” value (AV, pH 8, forward)?
A: 34.9 ± 2.0 cal/°K·mol

Q: And the “slope (Arrhenius linear fit)” value (AV, ph8)?
A: -7342.9

Q: What about the kcal/mol (from Arrhenius slope) (AV, ph8, the values are: Ea forward) of the same compound?
A: 14.6 kcal/mol

Q: What about the “Eon for BFl” value (Enthalpy block, AV) of the same compound?
A: 14.4

Q: What about the kon (pH 8, AV, pH 8, 10°C, read-out: kon) of the same compound?
A: 4.86e+06 ± 600000 M⁻¹ s⁻¹

Q: What about the kon (pH 8, AV, pH 8, 15°C, read-out: kon) of the same compound?
A: 7.6e+06 ± 2e+06 M⁻¹ s⁻¹

Q: And the kon (pH 8, AV, pH 8, 20°C, read-out: kon)?
A: 1.07e+07 ± 1.6e+06 M⁻¹ s⁻¹

Q: What about the kon (pH 8, AV, pH 8, 25°C, read-out: kon) of the same compound?
A: 1.85e+07 ± 2e+06 M⁻¹ s⁻¹
